Measurements reported in ChEMBL document CHEMBL4665763, “Molecular Networking-Guided Discovery and Characterization of Stechlisins, a Group of Cyclic Lipopeptides from a Pseudomonas sp” (2020).
≈ marks a conversion by molar mass, not a printed value. Calls of active or inactive are those of the source. No cut-off for these calls is given here.

tested on: Moraxella catarrhalis; experiment: Antimicrobial activity against Moraxella catarrhalis FH6810 after 18 hrs by micro broth dilution assay; format: functional

Compound | MIC | Activity
CCCCC[C@H](O)CC(=O)N[C@H](CC(C)C)C(=O)N[C@H](CC(=O)O)C(=O)N[C@H]1C(=O)N[C@H](CC(C)C)C(=O)N[C@H](CC(C)C)C(=O)N[C@H](CO)C(=O)N[C@@H](CC(C)C)C(=O)N[C@H](CCC(N)=O)C(=O)N[C@@H](CC(C)C)C(=O)N[C@@H]([C@@H](C)CC)C(=O)N[C@@H](CCC(=O)O)C(=O)O[C@@H]1C | – | inactive
CCCCCCC[C@H](O)CC(=O)N[C@H](CC(C)C)C(=O)N[C@H](CC(=O)O)C(=O)N[C@H]1C(=O)N[C@H](CC(C)C)C(=O)N[C@H](CC(C)C)C(=O)N[C@H](CO)C(=O)N[C@@H](CC(C)C)C(=O)N[C@H](CCC(N)=O)C(=O)N[C@@H](CC(C)C)C(=O)N[C@@H](CC(C)C)C(=O)N[C@@H](CCC(=O)O)C(=O)O[C@@H]1C | > 128 µg/mL | –
CCCCCCC[C@H](O)CC(=O)N[C@H](CC(C)C)C(=O)N[C@H](CC(=O)O)C(=O)N[C@H]1C(=O)N[C@H](CC(C)C)C(=O)N[C@H](CC(C)C)C(=O)N[C@H](CO)C(=O)N[C@@H](CC(C)C)C(=O)N[C@H](CCC(N)=O)C(=O)N[C@@H](CC(C)C)C(=O)N[C@@H](C(C)C)C(=O)N[C@@H](CCC(=O)O)C(=O)O[C@@H]1C | > 128 µg/mL | –

Now from value to molecule, other results behind:

MIC | Compound | Activity
4 µg/mL (≈ 2.78 µM) | CCCCCCCCC[C@H](O)CC(=O)N[C@H](CC(C)C)C(=O)N[C@H](CC(=O)O)C(=O)N[C@H]1C(=O)N[C@H](CC(C)C)C(=O)N[C@H](CC(C)C)C(=O)N[C@H](CO)C(=O)N[C@@H](CC(C)C)C(=O)N[C@H](CCC(N)=O)C(=O)N[C@@H](CC(C)C)C(=O)N[C@@H]([C@@H](C)CC)C(=O)N[C@@H](CCC(=O)O)C(=O)O[C@@H]1C | –
> 128 µg/mL | CCCCCCC[C@H](O)CC(=O)N[C@H](CC(C)C)C(=O)N[C@H](CCC(=O)O)C(=O)N[C@H]1C(=O)N[C@H](CC(C)C)C(=O)N[C@H](CC(C)C)C(=O)N[C@H](CO)C(=O)N[C@@H](CC(C)C)C(=O)N[C@H](CCC(N)=O)C(=O)N[C@@H](CC(C)C)C(=O)N[C@@H]([C@@H](C)CC)C(=O)N[C@@H](CCC(=O)O)C(=O)O[C@@H]1C | –
> 128 µg/mL | CCCCC[C@H](O)CC(=O)N[C@H](CC(C)C)C(=O)N[C@H](CCC(=O)O)C(=O)N[C@H]1C(=O)N[C@H](CC(C)C)C(=O)N[C@H](CC(C)C)C(=O)N[C@H](CO)C(=O)N[C@@H](CC(C)C)C(=O)N[C@H](CCC(N)=O)C(=O)N[C@@H](CC(C)C)C(=O)N[C@@H](CC(C)C)C(=O)N[C@@H](CCC(=O)O)C(=O)O[C@@H]1C | –
32 µg/mL (≈ 22.7 µM) | CCCCCCC[C@H](O)CC(=O)N[C@H](CC(C)C)C(=O)N[C@H](CC(=O)O)C(=O)N[C@H]1C(=O)N[C@H](CC(C)C)C(=O)N[C@H](CC(C)C)C(=O)N[C@H](CO)C(=O)N[C@@H](CC(C)C)C(=O)N[C@H](CCC(N)=O)C(=O)N[C@@H](CC(C)C)C(=O)N[C@@H]([C@@H](C)CC)C(=O)N[C@@H](CCC(=O)O)C(=O)O[C@@H]1C | –
